Test results published in ChEMBL document CHEMBL6087385, “Synthesis and biological evaluation of Ribo 7-N/O/S pyrimidine 9-deaza C-nucleoside analogs as new antiviral agents for inhibiting HCV RNA-dependent RNA polymerases” (Eur J Med Chem, 2024).

How the values were obtained:
[1] = Drug metabolism in human Hepatocyte cells assessed as triphosphate metabolite formation at 10 uM measured upto 24 hrs by HPLC-MS analysis; assay type: ADME, cell-based; details: hepatocytes
[2] = Drug concentration in Sprague-Dawley rat liver at 2 mg/kg, iv measured upto 24 hrs in presence of ATP by LC-MS/MS analysis; assay type: ADME, organism-based; details: read-out: Ct
[3] = Drug level in Sprague-Dawley rat liver assessed as triphosphate metabolite concentration at 2 mg/kg, iv measured after 1 hr in presence of ATP by LC-MS/MS analysis; assay type: ADME, organism-based; details: in vivo, read-out: Ct
Hepatitis C virus [4] = experiment: Anti-viral activity against HCV genotype 2a infected in 2aLucNeo-25 cells; assay type: functional, organism-based, Hepacivirus hominis
Hepatitis C virus [5] = experiment: Anti-viral activity against HCV genotype 2a infected in Lunet-CD81 cells; assay type: functional, organism-based, Hepacivirus hominis
[6] = Tmax in female mouse at 1 mg/kg, iv by reverse phase chromatography; assay type: ADME, organism-based; details: in vivo
[7] = Tmax in female mouse at 5 mg/kg, po by reverse phase chromatography; assay type: ADME, organism-based; details: in vivo
[8] = Tmax in Sprague-Dawley rat at 1 mg/kg, iv by reverse phase chromatography; assay type: ADME, organism-based; details: in vivo
[9] = Tmax in Sprague-Dawley rat at 10 mg/kg, po by reverse phase chromatography; assay type: ADME, organism-based; details: in vivo
[10] = Tmax in Cynomolgus monkey at 1 mg/kg, iv by reverse phase chromatography; assay type: ADME, organism-based, Macaca fascicularis; details: in vivo
[11] = Cmax in female mouse at 5 mg/kg, po by reverse phase chromatography; assay type: ADME, organism-based; details: in vivo
[12] = Cmax in Cynomolgus monkey at 1 mg/kg, iv by reverse phase chromatography; assay type: ADME, organism-based, Macaca fascicularis; details: in vivo, time 7 day
[13] = Half life in Sprague-Dawley rat at 5 mg/kg, po by reverse phase chromatography; assay type: ADME, organism-based; details: in vivo
[14] = Half life in Sprague-Dawley rat at 10 mg/kg, po by reverse phase chromatography; assay type: ADME, organism-based; details: in vivo
[15] = Half life in Cynomolgus monkey at 1 mg/kg, iv by reverse phase chromatography; assay type: ADME, organism-based, Macaca fascicularis; details: in vivo
[16] = Half life in Cynomolgus monkey at 10 mg/kg, po administered for 7 days by reverse phase chromatography; assay type: ADME, organism-based, Macaca fascicularis; details: in vivo, time 7 day
[17] = Volume of distribution in Sprague-Dawley rat at 1 mg/kg, iv by reverse phase chromatography; assay type: ADME, organism-based; details: in vivo
[18] = Volume of distribution in Cynomolgus monkey at 1 mg/kg, iv by reverse phase chromatography; assay type: ADME, organism-based, Macaca fascicularis; details: in vivo
[19] = Clearance in Sprague-Dawley rat at 1 mg/kg, iv by reverse phase chromatography; assay type: ADME, organism-based; details: in vivo
[20] = AUC in Sprague-Dawley rat at 1 mg/kg, iv by reverse phase chromatography; assay type: ADME, organism-based; details: in vivo
[21] = AUC in Sprague-Dawley rat at 5 mg/kg, po by reverse phase chromatography; assay type: ADME, organism-based; details: in vivo
[22] = AUC in Cynomolgus monkey at 1 mg/kg, iv by reverse phase chromatography; assay type: ADME, organism-based, Macaca fascicularis; details: in vivo
[23] = AUC (0 to infinity) in female mouse at 5 mg/kg, po by reverse phase chromatography; assay type: ADME, organism-based; details: in vivo
[24] = AUC (0 to infinity) in Sprague-Dawley rat at 1 mg/kg, iv by reverse phase chromatography; assay type: ADME, organism-based; details: in vivo
[25] = Oral bioavailability in Sprague-Dawley rat at 5 mg/kg by reverse phase chromatography; assay type: ADME, organism-based; details: in vivo
[26] = Oral bioavailability in Sprague-Dawley rat at 10 mg/kg by reverse phase chromatography; assay type: ADME, organism-based; details: in vivo
[27] = Drug absorption in human Caco-2 cells; assay type: ADME, cell-based
[28] = Metabolic stability in dog liver microsome assessed as half life in presence of NADPH; assay type: ADME, Canis lupus familiaris; details: liver microsomes
[29] = Metabolic stability in Non human primate liver microsome assessed as half life in presence of NADPH; assay type: ADME; details: liver microsomes
[30] = Metabolic stability in cryopreserved dog hepatocyte assessed as half life in presence of NADPH; assay type: ADME, cell-based, Canis lupus familiaris; details: cryopreserved hepatocytes
[31] = Metabolic stability in cryopreserved Non human primate hepatocyte assessed as half life in presence of NADPH; assay type: ADME, cell-based; details: cryopreserved hepatocytes
[32] = Toxicity in dog assessed as increase in QTc interval at 1 to 5 mg/kg, po measured after 3 hrs; assay type: organism-based, Canis lupus familiaris; details: in vivo, dose 1-5 mg/kg
[33] = Genotoxicity in CD-1(ICR)BR mouse assessed as effect on bone marrow cells at 2000 mg/kg, po by micronucleus assay; assay type: toxicity, organism-based; details: in vivo
[34] = Genotoxicity in CD-1(ICR)BR mouse assessed as increase in polychromatic erythrocytes at 500 to 2000 mg/kg, po measured after 48 hrs by micronucleus assay; assay type: toxicity, organism-based; details: in vivo, dose 500-2000 mg/kg
[35] = Genotoxicity in mouse L5178Y cells assessed as increase in forward mutation at thymidine kinase locus measured after 4 hrs; assay type: toxicity, cell-based
[36] = Genotoxicity in mouse L5178Y cells assessed as increase in forward mutation at thymidine kinase locus; assay type: toxicity, cell-based
[37] = Toxicity in rat assessed as change in body weight at 1 to 9 mg/kg, po; assay type: organism-based; details: in vivo, dose 1-9 mg/kg
[38] = Toxicity in rat assessed as mortality at 1 to 9 mg/kg, po; assay type: organism-based; details: in vivo, dose 1-9 mg/kg
Hepatitis C virus [39] = experiment: Antiviral activity against Hepatitis C virus infected in Ava5 cells assessed as inhibition of viral RNA replication incubated for 72 hrs by RT-PCR analysis; assay type: functional, organism-based, Hepacivirus hominis; details: Ava5, 72 h
[40] = Toxicity in Sprague-Dawley rat assessed as weight loss at 90 mg/kg, po administered as single dose and measured after 14 days; assay type: organism-based; details: in vivo, 336 h, time 14 day
[41] = Toxicity in Sprague-Dawley rat assessed as piloerection at 90 mg/kg, po administered as single dose and measured after 14 days; assay type: organism-based; details: in vivo, 336 h, time 14 day
[42] = Toxicity in Sprague-Dawley rat assessed as piloerection at 150 mg/kg, po administered as single dose and measured after 14 days; assay type: organism-based; details: in vivo, 336 h, time 14 day
[43] = Toxicity in Sprague-Dawley rat assessed as lethargy at 90 mg/kg, po administered as single dose and measured after 14 days; assay type: organism-based; details: in vivo, 336 h, time 14 day
[44] = Toxicity in Sprague-Dawley rat assessed as lethargy at 250 mg/kg, po administered as single dose and measured after 14 days; assay type: organism-based; details: in vivo, 336 h, time 14 day
[45] = Toxicity in Sprague-Dawley rat assessed as eyes and nares staining at 90 mg/kg, po administered as single dose and measured after 14 days; assay type: organism-based; details: in vivo, 336 h, time 14 day
[46] = Toxicity in Sprague-Dawley rat assessed as macroscopic examination at necroscopy at 250 mg/kg, po administered as single dose and measured after 14 days; assay type: organism-based; details: in vivo, 336 h, time 14 day
[47] = Toxicity in Sprague-Dawley rat assessed as animal death at 90 to 250 mg/kg, po administered as single dose and measured after 14 days; assay type: organism-based; details: in vivo, 336 h, dose 90-250 mg/kg, time 14 day
[48] = Toxicity in Cynomolgus monkey assessed as weight loss at 100 mg/kg, po administered twice a day; assay type: organism-based, Macaca fascicularis; details: in vivo
[49] = Toxicity in Cynomolgus monkey assessed as emesis at 250 to 500 mg/kg, po administered as single dose; assay type: organism-based, Macaca fascicularis; details: in vivo, dose 250-500 mg/kg
[50] = Toxicity in Cynomolgus monkey assessed as animal death at 100 to 500 mg/kg, po administered as single dose; assay type: organism-based, Macaca fascicularis; details: in vivo, dose 100-500 mg/kg

Question: With `C[C@@]1(O)[C@H](O)[C@@H](CO)O[C@H]1c1coc2c(N)ncnc12` as the compound, how does the Drug metabolism [1] read?
Answer: metabolite_detected

Question: And the concentration at 24 h [2]?
Answer: 0.42 µM

Question: What about the concentration [3] of the same compound?
Answer: 22.6 µM

Question: What about the EC50 (Hepatitis C virus [4]) of the same compound?
Answer: > 50 µM

Question: And the EC50 (Hepatitis C virus [5])?
Answer: > 50 µM

Question: What about the Tmax [6] of the same compound?
Answer: 4.98 min

Question: What about the Tmax [7] of the same compound?
Answer: 0.5 h

Question: What about the Tmax [8] of the same compound?
Answer: 4.8 min

Question: And the Tmax [9]?
Answer: 0.5 h

Question: What about the Tmax [10] of the same compound?
Answer: 1.8 min

Question: And the Cmax [11]?
Answer: 1060 ng/mL

Question: And the Cmax [12]?
Answer: 3200 ng/mL

Question: What about the half-life [13] of the same compound?
Answer: 9.18 h

Question: And the half-life [14]?
Answer: 8.86 h

Question: And the half-life [15]?
Answer: 24 h

Question: What about the half-life [16] of the same compound?
Answer: 26.3 h

Question: And the Vd [17]?
Answer: 33.2 L/kg

Question: And the Vd [18]?
Answer: 8.67 L/kg

Question: And the clearance [19]?
Answer: 17.6 mL/min/kg

Question: What about the AUC [20] of the same compound?
Answer: 699 ng·h/mL

Question: What about the AUC [21] of the same compound?
Answer: 1920 ng·h/mL

Question: And the AUC [22]?
Answer: 1930 ng·h/mL

Question: And the AUC(0-inf) [23]?
Answer: 4220 ng·h/mL

Question: What about the AUC(0-inf) [24] of the same compound?
Answer: 947 ng·h/mL

Question: What about the bioavailability [25] of the same compound?
Answer: 55%

Question: What about the bioavailability [26] of the same compound?
Answer: 71.2%

Question: What about the Drug absorption [27] of the same compound?
Answer: Not_active

Question: And the half-life [28]?
Answer: > 1.67 h

Question: What about the half-life [29] of the same compound?
Answer: > 1.67 h

Question: What about the half-life [30] of the same compound?
Answer: > 1 h

Question: And the half-life [31]?
Answer: > 1 h

Question: And the Activity [32]?
Answer: Non-toxic

Question: And the Activity [33]?
Answer: Toxic

Question: What about the Activity [34] of the same compound?
Answer: Toxic

Question: What about the Activity [35] of the same compound?
Answer: Toxic

Question: And the Activity [36]?
Answer: Non-toxic

Question: And the Activity [37]?
Answer: Non-toxic

Question: What about the Activity [38] of the same compound?
Answer: Non-toxic

Question: What about the EC50 (Hepatitis C virus [39]) of the same compound?
Answer: 6.5 µM

Question: What about the Activity [40] of the same compound?
Answer: Toxic

Question: What about the Activity [41] of the same compound?
Answer: Non-toxic

Question: And the Activity [42]?
Answer: Toxic

Question: What about the Activity [43] of the same compound?
Answer: Non-toxic

Question: What about the Activity [44] of the same compound?
Answer: Non-toxic

Question: And the Activity [45]?
Answer: Non-toxic

Question: What about the Activity [46] of the same compound?
Answer: Toxic

Question: And the Activity [47]?
Answer: Non-toxic

Question: And the Activity [48]?
Answer: Non-toxic

Question: And the Activity [49]?
Answer: Toxic

Question: And the Activity [50]?
Answer: Non-toxic
